Experimental data: patent US7741488B2, “Tetrahydropyridothiophenes as antiproliferative agents for the treatment of cancer” (4SC AG, priority 2005, dated 2010)

How the values were obtained:
[1] = test system: RKO (RKOp27) human colon adenocarcinoma cells; test: Alamar Blue cell viability assay, anti-proliferative/cytotoxic activity on proliferating (uninduced) RKO p27 cells; format: cell-based; conditions: RKOp27, 72 h, proliferating cells without inducer Ponasterone A
Procedure: The anti-proliferative/cytotoxic activity of the compounds described herein, can be tested on subclones of RKO (RKOp27) human colon adenocarcinoma cells (Schmidt et al., Oncogene 19, 2423-2429; 2000) using the Alamar Blue cell viability assay (described in O'Brien et al. Eur J Biochem 267, 5421-5426, 2000). The compounds are dissolved as 20 mM solutions in dimethylsulfoxide (DMSO) and subsequently diluted in semi-logarithmic steps. DMSO dilutions are further diluted 1:100 into Dulbecco's modified Eagle's medium (DMEM) containing 10% fetal calf serum to a final concentration twice as much as the final concentration in the test. RKO subclones are seeded into 96 well flat bottom plates at a density of 4000 cells per well in a volume of 50 μl per well. 24 hours after seeding the 50 μl each of the compound dilutions in DMEM medium are added into each well of the 96 Well plate. Each compound dilution is tested as quadruplicates. Wells containing untreated control cells are filled with 50 μl DMEM medium containing 1% DMSO. The cells are then incubated with the substances for 72 hours at 37° C. in a humidified atmosphere containing 5% carbon dioxide. To determine the viability of the cells, 10 μl of an Alamar Blue solution (Biosource) are added and the fluorescence is measured at an extinction of 544 nm and an emission of 590 nm. For the calculation of the cell viability the emission value from untreated cells is set as 100% viability and the emission rates of treated cells are set in relation to the values of untreated cells. Viabilities are expressed as % values.
The corresponding IC50 values of the compounds for anti-proliferative/cytotoxic activity are determined from the concentration-effect curves.
Representative IC50 values for anti-proliferation/cytotoxicity determined in the mentioned assay follow from the following table A, in which the numbers of the compound correspond to the numbers of the examples.

[2] = test system: RKOp27 colon adenocarcinoma cells arrested by expression of ectopic p27Kip1; test: Alamar Blue cell viability assay on RKO p27 cells arrested by Ponasterone A induced p27Kip1 (cell cycle specific mode of action); format: cell-based; conditions: Homo sapiens, 72 hours, cells arrested by p27Kip1 induced with 10 μM Ponasterone A
Procedure: To determine the cell cycle specific mode of action, subclones of RKO colon adenocarcinoma cells (RKOp27 or RKOp21 as described by Schmidt et al. in Oncogene 19, 2423-2429; 2000) are seeded into 96 well flat bottom plates at a density of 16000 cells per well in a volume of 50 μl per well in DMEM growth medium with 10% FCS containing 10 μM Ponasterone A. 24 hours after seeding the 50 μl each of the compound dilutions in DMEM medium are added into each well of the 96 Well plate. Each compound dilution is tested as quadruplicates. Wells containing untreated control cells are filled with 50 μl DMEM medium containing 1% DMSO. The cells are then incubated with the substances for 72 hours at 37° C. in a humidified atmosphere containing 5% carbon dioxide. To determine the viability of the cells, 10 μl of an Alamar Blue solution (Biosource) are added and the fluorescence was measured at an extinction of 544 nm and an emission of 590 nm. For the calculation of the cell viability the emission value from untreated cells is set as 100% viability and the emission rates of treated cells are set in relation to the values of untreated cells. Viabilities are expressed as % values. Viability is compared of proliferating cells grown in the absence of the inducer Ponasterone A, versus viability of cells arrested by the expression of ectopic p27Kip1 induced by Ponasterone A.

IC50 [2] [nM]	SMILES	IC50 [1] [nM]
> 100000	COc1ccccc1CCC(=O)Nc1sc2c(c1C#N)CCN(C(=O)OCc1ccncc1)C2 [Example 28, 3-Cyano-2-[3-(2-methoxy-phenyl)-propanoylamino]-4,7-dihydro-5H-thieno[2,3-c]pyridine-6-carboxylic acid pyridin-4-ylmethyl ester]	≤ 300
> 100000	COc1cccc(CCC(=O)Nc2sc3c(c2C#N)CCN(C(=O)OCc2ccccn2)C3)c1 [Example 29, 3-Cyano-2-[3-(3-methoxy-phenyl)-propanoylamino]-4,7-dihydro-5H-thieno[2,3-c]pyridine-6-carboxylic acid pyridin-2-ylmethyl ester]	≤ 300
> 100000	COc1ccccc1CCC(=O)Nc1sc2c(c1C#N)CCN(C(=O)OCC1COC(C)(C)O1)C2 (stereo not shown) [Example 30, 3-Cyano-2-[3-(2-methoxy-phenyl)-propanoylamino]-4,7-dihydro-5H-thieno[2,3-c]pyridine-6-carboxylic acid 2,2-dimethyl-[1,3]dioxolan-4-ylmethyl ester]	≤ 300
> 100000	COc1ccccc1CCC(=O)Nc1sc2c(c1C#N)CCN(C(=O)OCC(O)CO)C2 (stereo not shown) [Example 32, 3-Cyano-2-[3-(2-methoxy-phenyl)-propanoylamino]-4,7-dihydro-5H-thieno[2,3-c]pyridine-6-carboxylic acid 2,3-dihydroxy-propyl ester]	≤ 300
> 100000	CCOc1ccccc1CCC(=O)Nc1sc2c(c1C#N)CCN(C(=O)OCC(O)CO)C2 (stereo not shown) [Example 33, 3-Cyano-2-[3-(2-ethoxy-phenyl)-propanoylamino]-4,7-dihydro-5H-thieno[2,3-c]pyridine-6-carboxylic acid 2,3-dihydroxy-propyl ester]	≤ 300
> 100000	COc1ccccc1CCC(=O)Nc1sc2c(c1C#N)CCN(C(=O)OCCO)C2 [Example 34, 3-Cyano-2-[3-(2-methoxy-phenyl)-propanoylamino]-4,7-dihydro-5H-thieno[2,3-c]pyridine-6-carboxylic acid 2-hydroxy-ethyl ester]	≤ 300
> 100000	CCOc1ccccc1CCC(=O)Nc1sc2c(c1C#N)CCN(C(=O)OCCO)C2 [Example 35, 3-Cyano-2-[3-(2-ethoxy-phenyl)-propanoylamino]-4,7-dihydro-5H-thieno[2,3-c]pyridine-6-carboxylic acid 2-hydroxy-ethyl ester]	≤ 300
> 100000	COc1cccc(CCC(=O)Nc2sc3c(c2C#N)CCN(C(=O)OCc2cccnc2)C3)c1 [Example 36, 3-Cyano-2-[3-(3-methoxy-phenyl)-propanoylamino]-4,7-dihydro-5H-thieno[2,3-c]pyridine-6-carboxylic acid pyridin-3-ylmethyl ester]	≤ 300
> 100000	COc1cccc(CCC(=O)Nc2sc3c(c2C#N)CCN(C(=O)OCc2ccncc2)C3)c1 [Example 37, 3-Cyano-2-[3-(3-methoxy-phenyl)-propanoylamino]-4,7-dihydro-5H-thieno[2,3-c]pyridine-6-carboxylic acid pyridin-4-ylmethyl ester]	≤ 300
> 100000	COc1cccc(CCC(=O)Nc2sc3c(c2C#N)CCN(C(=O)OCCc2ccccn2)C3)c1 [Example 38, 3-Cyano-2-[3-(3-methoxy-phenyl)-propanoylamino]-4,7-dihydro-5H-thieno[2,3-c]pyridine-6-carboxylic acid 2-pyridin-2-yl-ethyl ester]	300 to 2000
> 100000	CCOC(=O)N1CCc2c(sc(NC(=O)CCc3ccccc3OC(F)(F)F)c2C#N)C1 [Example 39, 3-Cyano-2-[3-(2-trifluoromethoxy-phenyl)-propanoylamino]-4,7-dihydro-5H-thieno[2,3-c]pyridine-6-carboxylic acid ethyl ester]	≤ 300
> 100000	CCOc1ccccc1CCC(=O)Nc1sc2c(c1C#N)CCN(C(=O)OCCOC)C2 [Example 40, 3-Cyano-2-[3-(2-ethoxy-phenyl)-propanoylamino]-4,7-dihydro-5H-thieno[2,3-c]pyridine-6-carboxylic acid 2-methoxy-ethyl ester]	≤ 300
> 100000	CCOc1ccccc1CCC(=O)Nc1sc2c(c1C#N)CCN(C(=O)OCc1ccccn1)C2 [Example 41, 3-Cyano-2-[3-(2-ethoxy-phenyl)-propanoylamino]-4,7-dihydro-5H-thieno[2,3-c]pyridine-6-carboxylic acid pyridin-2-ylmethyl ester]	≤ 300
> 100000	CCOc1ccccc1CCC(=O)Nc1sc2c(c1C#N)CCN(C(=O)OCc1cccnc1)C2 [Example 42, 3-Cyano-2-[3-(2-ethoxy-phenyl)-propanoylamino]-4,7-dihydro-5H-thieno[2,3-c]pyridine-6-carboxylic acid pyridin-3-ylmethyl ester]	≤ 300
≥ 40000	CCOc1ccccc1CCC(=O)Nc1sc2c(c1C#N)CCN(C(=O)OCc1ccncc1)C2 [Example 43, 3-Cyano-2-[3-(2-ethoxy-phenyl)-propanoylamino]-4,7-dihydro-5H-thieno[2,3-c]pyridine-6-carboxylic acid pyridin-4-ylmethyl ester]	≤ 300
> 100000	CCOc1ccccc1CCC(=O)Nc1sc2c(c1C#N)CCN(C(=O)OCCc1ccccn1)C2 [Example 44, 3-Cyano-2-[3-(2-ethoxy-phenyl)-propanoylamino]-4,7-dihydro-5H-thieno[2,3-c]pyridine-6-carboxylic acid 2-pyridin-2-yl-ethyl ester]	≤ 300
> 100000	COCCOC(=O)N1CCc2c(sc(NC(=O)CCc3cccc(OC)c3)c2C#N)C1 [Example 45, 3-Cyano-2-[3-(3-methoxy-phenyl)-propanoylamino]-4,7-dihydro-5H-thieno[2,3-c]pyridine-6-carboxylic acid 2-methoxy-ethyl ester]	≤ 300
> 100000	COc1ccc(OC)c(CCC(=O)Nc2sc3c(c2C#N)CCN(C(=O)OCCO)C3)c1 [Example 46, 3-Cyano-2-[3-(2,5-dimethoxy-phenyl)-propanoylamino]-4,7-dihydro-5H-thieno[2,3-c]pyridine-6-carboxylic acid 2-hydroxy-ethyl ester]	300 to 2000
> 100000	COc1ccc(C)cc1CCC(=O)Nc1sc2c(c1C#N)CCN(C(=O)OCCc1ccccn1)C2 [Example 48, 3-Cyano-2-[3-(2-methoxy-5-methyl-phenyl)-propanoylamino]-4,7-dihydro-5H-thieno[2,3-c]pyridine-6-carboxylic acid 2-pyridin-2-yl-ethyl ester]	300 to 2000
> 100000	COc1ccc(OC)c(CCC(=O)Nc2sc3c(c2C#N)CCN(C(=O)OCc2cccnc2)C3)c1 [Example 50, 3-Cyano-2-[3-(2,5-dimethoxy-phenyl)-propanoylamino]-4,7-dihydro-5H-thieno[2,3-c]pyridine-6-carboxylic acid pyridin-3-ylmethyl ester]	300 to 2000
> 100000	COc1ccc(C)cc1CCC(=O)Nc1sc2c(c1C#N)CCN(C(=O)OCc1cccnc1)C2 [Example 51, 3-Cyano-2-[3-(2-methoxy-5-methyl-phenyl)-propanoylamino]-4,7-dihydro-5H-thieno[2,3-c]pyridine-6-carboxylic acid pyridin-3-ylmethyl ester]	≤ 300
> 100000	COc1ccc(C)cc1CCC(=O)Nc1sc2c(c1C#N)CCN(C(=O)OCC(O)CO)C2 (stereo not shown) [Example 52, 3-Cyano-2-[3-(2-methoxy-5-methyl-phenyl)-propanoylamino]-4,7-dihydro-5H-thieno[2,3-c]pyridine-6-carboxylic acid 2,3-dihydroxy-propyl ester]	300 to 2000
> 100000	COc1cccc(CCC(=O)Nc2sc3c(c2C#N)CCN(C(=O)OCCO)C3)c1 [Example 53, 3-Cyano-2-[3-(3-methoxy-phenyl)-propanoylamino]-4,7-dihydro-5H-thieno[2,3-c]pyridine-6-carboxylic acid 2-hydroxy-ethyl ester]	300 to 2000
